Results reported in patent US10968203B2, “Pyrimidinyl-pyridyloxy-naphthyl compounds and methods of treating IRE1-related diseases and disorders” (Genentech, Inc., priority 2017, dated 2021).
pIC50: −log10 of the molar value. Several values for one entry are separate records, joined by “and”; a condition that tells them apart may be missing. Equal values may be shown once.

Test system: XBP1s-luc 293 LUC
Test: cellular PD assay, XBP1s-LUC reporter (Example 903)
Format: cell-based
Conditions: Table 1; read-out: XBP1s-luc 293 LUC (IC50)
Protocol: Inhibition of IRE1α RNase activity was determined in an enzyme assay that measured cleavage of the XBP1 stem loop by autophosphorylated IRE1α. This assay format was chosen to ensure that inhibitors of either the IRE1α kinase or the RNase domains would be identified. Binding to the ATP pocket and inhibition of IRE1α kinase activity are not necessarily required to inhibit the RNase activity. Compounds were also profiled in cellular assays by direct measurement of XBP s (B-DNA assay) or by quantification of the luciferase signal in HT1080 XBP1-Luc, which carries a luciferase fusion that is only in frame and expressed from the spliced XBP1 transcript.
Biological activity of Formula I or I′ compounds was measured by an IRE1 biochemical binding assay (Example 901), a biochemical RNase assay (Example 902), a cellular PD assay, XBP1s-LUC reporter (Example 903), and an IRE1α-based inhibition of multiple myeloma (MM) cell proliferation assay.
All of the exemplary Formula I or I′ compounds in Tables 1 and 2 were made and characterized by LCMS [M+H]^+ (liquid chromatography mass spectroscopy) with detection of parent ion. All of the exemplary Formula I compounds in Tables 1 and 2 were prepared according to the procedures of the Schemes, General Procedures, and Examples. All of the exemplary Formula I or I′ compounds in Tables 1 and 2 were tested for binding to IRE1 (inositol requiring enzyme 1 alpha) and biological activity according to the assays and protocols of Example 901-903. Exemplary Formula I or I′ compounds in Tables 1 and 2 have the following structures, corresponding IUPAC names (ChemBioDraw, Version 12.0.2, CambridgeSoft Corp., Cambridge Mass.), and biological activity. Where more than one name is associated with a Formula I or I′ compound or intermediate in Tables 1 and 2 and the Experimental Procedures, the chemical structure shall define the compound. Assignment of configuration at chiral centers in separated stereoisomers may be tentative, and depicted in Tables 1 and 2 structures for illustrative purposes, before stereochemistry is definitively established, such as from x-ray crystallographic data. In some cases, stereoisomers are separated and tested for biological activity before the stereochemistry of the separated stereoisomers is determined; and stereochemistry in some instances was inferred based on structure-activity relationship (SAR) knowledge from previous compounds. In some cases, the compounds are tested as racemic or diastereomeric mixtures. Where more than one potency value is entered on a row, separated stereoisomers represented by the structure and name on that row were tested. Exemplary compounds of Formula I or I′ in Table 3 can be prepared using methods known in the art or according to procedures similar to those described in the Schemes, General Procedures, and Examples 101-500. Biological activities of compounds in Table 3 can be tested in biological assays, for example, those in Examples 901, 902 and 903 described herein.

Row | SMILES | pIC50
1 | CCC(C)S(=O)(=O)Nc1cccc2c(Oc3ncccc3-c3ccnc(N[C@H]4CCCNC4)n3)c(C)ccc12 (mixture of isomers) [Example 134, N-(6-Methyl-5-((3-(2-((S)-piperidin-3-ylamino)pyrimidin-4-yl)pyridin-2-yl)oxy)naphthalen-1-yl) butane-2-sulfonamide] | 6.59
2 | Cc1ccc2c(NCC3CC3(F)F)cccc2c1Oc1ncccc1-c1ccnc(N[C@H]2CCCNC2)n1 (mixture of isomers) [Example 341, 4-(2-((5-(((2,2-Difluorocyclopropyl)methyl)amino)-2-methylnaphthalen-1-yl)oxy)pyridin-3-yl)-N—((S)-piperidin-3-yl)pyrimidin-2-amine] | 6.93
3 | Cc1ccc2c(NC(=O)[C@@H]3C[C@@H]3F)cccc2c1Oc1ncccc1-c1ccnc(N[C@H]2CCCNC2)n1 (relative stereo) [Example 212, (1S,2S)-2-Fluoro-N-[6-methyl-5-[[3-[2-[[(3S)-3-piperidyl]amino]pyrimidin-4-yl]-2-pyridyl]oxy]-1-naphthyl]cyclopropanecarboxamide] | 6.91
4 | CCCS(=O)(=O)Nc1cccc2c(Oc3ncccc3-c3ccnc(N[C@@H]4CNCC[C@H]4C)n3)c(C)ccc12 (single isomer, unassigned) [Example 169] | 6.92
5 | Cc1ccc2c(NC(=O)[C@H]3CC3(F)F)cccc2c1Oc1ncccc1-c1ccnc(N[C@H]2CCCNC2)n1 (single isomer, unassigned) [Example 179] | 7.12
6 | Cc1ccc2c(NC(=O)[C@@H]3CC3(F)F)cccc2c1Oc1ncccc1-c1ccnc(N[C@H]2CCCNC2)n1 (single isomer, unassigned) [Example 180] | 6.67
7 | CCCS(=O)(=O)Nc1cccc2c(Oc3ncccc3-c3ccnc(N[C@H]4CC[C@H](C)NC4)n3)c(C)ccc12 (single isomer, unassigned) [Example 196] | 6.79
8 | Cc1ccc2c(NCC[C@@H](C)O)cccc2c1Oc1ncccc1-c1ccnc(N[C@H]2CCCNC2)n1 (single isomer, unassigned) [Example 201] | 6.88
9 | Cc1ccc2c(NCC[C@H](C)O)cccc2c1Oc1ncccc1-c1ccnc(N[C@H]2CCCNC2)n1 (single isomer, unassigned) [Example 202] | 6.91
10 | CO[C@H]1CNC[C@@H](Nc2nccc(-c3cccnc3Oc3c(C)ccc4c(NS(=O)(=O)Cc5ccc(Cl)cc5)cccc34)n2)C1 (single isomer, unassigned) [Example 205] | 6.89
11 | CCCS(=O)(=O)Nc1cccc2c(Oc3ncccc3-c3ccnc(N[C@@H]4CNCC[C@H]4F)n3)c(C)ccc12 (single isomer, unassigned) [Example 206] | 6.31
12 | Cc1ccc2c(NS(=O)(=O)CC(C)C)c(F)ccc2c1Oc1ncccc1-c1ccnc(N[C@@H]2CNC[C@@H](F)C2)n1 (single isomer, unassigned) [Example 208] | 7.74
13 | Cc1ccc2c(NS(=O)(=O)[C@@H](C)c3ccccc3)cccc2c1Oc1ncccc1-c1ccnc(N[C@H]2CCCNC2)n1 (single isomer, unassigned) [Example 214] | 7.12
14 | Cc1ccc2c(NC(=O)[C@H]3CC34CC4)cccc2c1Oc1ncccc1-c1ccnc(N[C@H]2CCCNC2)n1 (single isomer, unassigned) [Example 217] | 7.26
15 | Cc1ccc2c(NC(=O)[C@@H]3CC34CC4)cccc2c1Oc1ncccc1-c1ccnc(N[C@H]2CCCNC2)n1 (single isomer, unassigned) [Example 218] | 6.76
16 | Cc1ccc2c(NC(=O)[C@@H]3C[C@@]3(F)c3ccccc3)cccc2c1Oc1ncccc1-c1ccnc(N[C@H]2CCCNC2)n1 (single isomer, unassigned) [Example 226] | 6.65
17 | Cc1ccc2c(NC(=O)C3CC3C(F)(F)F)cccc2c1Oc1ncccc1-c1ccnc(N[C@H]2CCCNC2)n1 (single isomer, unassigned) [Example 227] | 6.31
18 | Cc1ccc2c(NC(=O)C3CC3C(F)(F)F)cccc2c1Oc1ncccc1-c1ccnc(N[C@H]2CCCNC2)n1 (single isomer, unassigned) [Example 228] | 7.06
19 | Cc1ccc2c(NC(=O)C3CC3C(C)C)cccc2c1Oc1ncccc1-c1ccnc(N[C@H]2CCCNC2)n1 (single isomer, unassigned) [Example 229] | 6.34
20 | Cc1ccc2c(NC(=O)C3CC3C(C)C)cccc2c1Oc1ncccc1-c1ccnc(N[C@H]2CCCNC2)n1 (single isomer, unassigned) [Example 230] | 7.10
21 | Cc1ccc2c(NC(=O)[C@@H]3C[C@@H]3C)cccc2c1Oc1ncccc1-c1ccnc(N[C@H]2CCCNC2)n1 (single isomer, unassigned) [Example 231] | 7.28 and 7.48

Row | SMILES | pIC50
22 | Cc1ccc2c(N3C(=O)C4CCCC43)cccc2c1Oc1ncccc1-c1ccnc(N[C@H]2CCCNC2)n1 (single isomer, unassigned) [Example 248] | 6.34
23 | Cc1ccc2c(NC(=O)[C@H]3CC34CCCC4)cccc2c1Oc1ncccc1-c1ccnc(N[C@H]2CCCNC2)n1 (single isomer, unassigned) [Example 253] | 6.45
24 | Cc1ccc2c(NC(=O)[C@@H]3CC34CCCC4)cccc2c1Oc1ncccc1-c1ccnc(N[C@H]2CCCNC2)n1 (single isomer, unassigned) [Example 254] | 7.16
25 | Cc1ccc2c(N3CC[C@H](C)C3=O)cccc2c1Oc1ncccc1-c1ccnc(N[C@H]2CCCNC2)n1 (single isomer, unassigned) [Example 257] | 6.58
26 | CC[C@@H]1CCN(c2cccc3c(Oc4ncccc4-c4ccnc(N[C@H]5CCCNC5)n4)c(C)ccc23)C1=O (single isomer, unassigned) [Example 266] | 6.92
27 | Cc1ccc2c(NC(=O)[C@@H]3CCC(F)(F)C3)cccc2c1Oc1ncccc1-c1ccnc(N[C@H]2CCCNC2)n1 (single isomer, unassigned) [Example 269] | 6.47
28 | Cc1ccc2c(NC(=O)[C@H]3CCC(F)(F)C3)cccc2c1Oc1ncccc1-c1ccnc(N[C@H]2CCCNC2)n1 (single isomer, unassigned) [Example 270] | 6.72
29 | Cc1ccc2c(NC(=O)[C@H]3CC3C3CC3)cccc2c1Oc1ncccc1-c1ccnc(N[C@H]2CCCNC2)n1 (single isomer, unassigned) [Example 273] | 6.52
30 | Cc1ccc2c(NC(=O)[C@@H]3CC3C3CC3)cccc2c1Oc1ncccc1-c1ccnc(N[C@H]2CCCNC2)n1 (single isomer, unassigned) [Example 274] | 7.00
31 | Cc1ccc2c(NC(=O)[C@@H]3CCC(C)C3)cccc2c1Oc1ncccc1-c1ccnc(N[C@H]2CCCNC2)n1 (single isomer, unassigned) [Example 277] | 6.77
32 | Cc1ccc2c(NC(=O)[C@H]3CCC(C)C3)cccc2c1Oc1ncccc1-c1ccnc(N[C@H]2CCCNC2)n1 (single isomer, unassigned) [Example 278] | 6.50
33 | Cc1ccc2c(NC(=O)[C@@H]3CC3(C)C)cccc2c1Oc1ncccc1-c1ccnc(N[C@H]2CCCNC2)n1 (single isomer, unassigned) [Example 287] | 7.40
34 | Cc1ccc2c(NC(=O)[C@H]3CC3(C)C)cccc2c1Oc1ncccc1-c1ccnc(N[C@H]2CCCNC2)n1 (single isomer, unassigned) [Example 288] | 6.73
35 | Cc1ccc2c(NCC[C@@H]3CC3(F)F)cccc2c1Oc1ncccc1-c1ccnc(N[C@H]2CCCNC2)n1 (single isomer, unassigned) [Example 291] | 6.44
36 | Cc1ccc2c(NCC[C@H]3CC3(F)F)cccc2c1Oc1ncccc1-c1ccnc(N[C@H]2CCCNC2)n1 (single isomer, unassigned) [Example 292] | 6.53
37 | Cc1ccc2c(NC(C)c3cscn3)cccc2c1Oc1ncccc1-c1ccnc(N[C@H]2CCCNC2)n1 (single isomer, unassigned) [Example 295] | 6.68
38 | Cc1ccc2c(NC(=O)CC(C)(C)C)c(F)ccc2c1Oc1ncccc1-c1ccnc(N[C@@H]2CNC[C@@H](F)C2)n1 (single isomer, unassigned) [Example 322] | 7.39
39 | CCCS(=O)(=O)Nc1c(F)ccc2c(Oc3ncccc3-c3ccnc(N[C@@H]4CNCC[C@H]4C)n3)c(C)ccc12 (single isomer, unassigned) [Example 327] | 6.60
40 | CCCS(=O)(=O)Nc1c(F)ccc2c(Oc3ncccc3-c3ccnc(N[C@@H]4CNC[C@@H](F)C4)n3)c(C)ccc12 (single isomer, unassigned) [Example 328] | 7.82
41 | CC[C@@H]1CCN(c2cccc3c(Oc4ncccc4-c4ccnc(N[C@@H]5CNC[C@H](C)C5)n4)c(C)ccc23)C1=O (single isomer, unassigned) [Example 331] | 7.24
